According to patent publication US8697641B2, “4-amino-4-oxobutanoyl peptide cyclic analogues, inhibitors of viral replication” (Achillion Pharmaceuticals, Inc., priority 2008, dated 2014):

What follows are molecules tested on Hepatitis C replicon (assay: HCV replicon assay (NPT ELISA readout) in Huh-7 replicon-containing cells). Conditions: Hepatitis C virus, 72 h; HCV replicon in Huh-7 cells, three days incubation.
Assay type: cell-based, Hepatitis C virus
Procedure, shortened: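 Replication is measured as neomycin phosphotransferase level by captured ELISA after three days of compound exposure (typically 10 to 0.03 μM, 6 concentrations) at 37 °C. Cells are Huh-7 harbouring an HCV replicon with neo gene and NS3-NS5B; interferon alpha is the positive control.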
For `O=C(N[C@@H]1C[C@H]2C(=O)N[C@]3(C(=O)NS(=O)(=O)C4CC4)C[C@H]3/C=C\CCCCC[C@H](CC(=O)N3CCC(F)(F)CC3)C(=O)N2C1)c1cc(-c2ccccc2)nc2ccccc12` [Compound 79, (2R,6R,13aS, 14aR,16aS,Z)-N-(cyclopropylsulfonyl)-6-(2-(4,4-difluoropiperidin-1-yl)-2-oxoethyl)-5,16-dioxo-2-(2-phenylquinoline-4-carboxamido)-1,2,3,5,6,7,8,9,10,11, 13a,14,14a,15,16,16a-hexadecahydrocyclopropa [e]pyrrolo[1,2-a][1,4] diazacyclopentadecine-14a-carboxamide], the EC50 was < 1 µM.
`O=C(N[C@@H]1C[C@H]2C(=O)N[C@]3(C(=O)NS(=O)(=O)C4CC4)C[C@H]3/C=C\CCCCC[C@H](CC(=O)N3CCCCC3)C(=O)N2C1)c1cc(-c2ccccc2)nc2ccccc12` [Compound 81, (2R,6R,14aR,16aS,Z)-N-(cyclopropylsulfonyl)-5,16-dioxo-6-(2-oxo-2-(piperidin-1-yl)ethyl)-2-(2-phenylquinoline-4-carboxamido)-1,2,3,5,6,7,8,9,10,11, 13a,14,14a,15,16,16a-hexadecahydrocyclopropa [e]pyrrolo[1,2-a][1,4] diazacyclopentadecine-14a-carboxamide] was tested, and the EC50 was < 1 µM.
With `O=C1N[C@]2(C(=O)NS(=O)(=O)C3CC3)C[C@H]2/C=C\CCCCC[C@H](CC(=O)N2CCC(F)(F)CC2)C(=O)N2C[C@H](Oc3cc(-c4ccccn4)nc4c5c(ccc34)OCC5)C[C@@H]12` [Compound 82, (2R,6R,14aR,16aS,Z)-N-(cyclopropylsulfonyl)-6-(2-(4,4-difluoropiperidin-1-yl)-2-oxoethyl)-5,16-dioxo-2-(2-(pyridin-2-yl)-8,9-dihydrofuro[2,3-h]quinolin-4-yloxy)-1,2,3,5,6,7,8,9,10,11, 13a,14,14a,15,16,16a-hexadecahydrocyclopropa [e]pyrrolo[1,2-a][1,4] diazacyclopentadecine-14a-carboxamide] the EC50 was < 1 µM.
`O=C1N[C@]2(C(=O)NS(=O)(=O)C3CC3)C[C@H]2/C=C\CCCCC[C@H](CC(=O)N2CCC(C(F)(F)F)CC2)C(=O)N2C[C@H](Oc3cc(-c4ccccn4)nc4c5c(ccc34)OCC5)C[C@@H]12` [Compound 83, (2R,6R,14aR,16aS,Z)-N-(cyclopropylsulfonyl)-5,16-dioxo-6-(2-oxo-2-(4-(trifluoromethyl)piperidin-1-yl)ethyl)-2-(2-(pyridin-2-yl)-8,9-dihydrofuro[2,3-h]quinolin-4-yloxy)-1,2,3,5,6,7,8,9,10,11, 13a,14,14a,15,16,16a-hexadecahydrocyclopropa [e]pyrrolo[1,2-a][1,4] diazacyclopentadecine-14a-carboxamide] was tested, and the EC50 was < 1 µM.
`O=C1N[C@]2(C(=O)NS(=O)(=O)C3CC3)C[C@H]2/C=C\CCCCC[C@H](CC(=O)N2CCCCC2)C(=O)N2C[C@H](Oc3cc(-c4ccccn4)nc4c5c(ccc34)OCC5)C[C@@H]12` [Compound 84, (2R,6R,14aR,16aS,Z)-N-(cyclopropylsulfonyl)-5,16-dioxo-6-(2-oxo-2-(piperidin-1-yl)ethyl)-2-(2-(pyridin-2-yl)-8,9-dihydrofuro[2,3-h]quinolin-4-yloxy)-1,2,3,5,6,7,8,9,10,11, 13a,14,14a,15,16,16a-hexadecahydrocyclopropa [e]pyrrolo[1,2-a][1,4] diazacyclopentadecine-14a-carboxamide] was tested, and the EC50 was > 10 µM.
`COc1ccc2c(O[C@@H]3C[C@H]4C(=O)N[C@]5(C(=O)NS(=O)(=O)C6CC6)C[C@H]5/C=C\CCCCC[C@H](CC(=O)N5CCN(C(=O)N6CCCC6)CC5)C(=O)N4C3)cc(-c3ccccc3)nc2c1` [Compound 85, (2R,6R,14aR,16aS,Z)-N-(cyclopropylsulfonyl)-2-(7-methoxy-2-phenylquinolin-4-yloxy)-5,16-dioxo-6-(2-oxo-2-(4-(pyrrolidine-1-carbonyl)piperazin-1-yl)ethyl)-1,2,3,5,6,7,8,9,10,11, 13a,14,14a,15,16,16a-hexadecahydrocyclopropa [e]pyrrolo[1,2-a][1,4] diazacyclopentadecine-14a-carboxamide] was tested, and the EC50 was < 1 µM.
`CCS(=O)(=O)N1CCN(C(=O)C[C@H]2CCCCC/C=C\[C@@H]3C[C@@]3(C(=O)NS(=O)(=O)C3CC3)NC(=O)[C@@H]3C[C@@H](Oc4cc(-c5ccccc5)nc5cc(OC)ccc45)CN3C2=O)CC1` [Compound 86, (2R,6R,14aR,16aS,Z)-N-(cyclopropylsulfonyl)-6-(2-(4-(ethylsulfonyl)piperazin-1-yl)-2-oxoethyl)-2-(7-methoxy-2-phenylquinolin-4-yloxy)-5,16-dioxo-1,2,3,5,6,7,8,9,10,11, 13a,14,14a,15,16,16a-hexadecahydrocyclopropa [e]pyrrolo[1,2-a][1,4] diazacyclopentadecine-14a-carboxamide] was tested, and the EC50 was < 1 µM.
In the case of `COc1ccc2c(O[C@@H]3C[C@H]4C(=O)N[C@]5(C(=O)NS(=O)(=O)C6CC6)C[C@H]5/C=C\CCCCC[C@H](CC(=O)N5CCN(c6cnccn6)CC5)C(=O)N4C3)cc(-c3ccccc3)nc2c1` [Compound 87, (2R,6R,14aR,16aS,Z)-N-(cyclopropylsulfonyl)-2-(7-methoxy-2-phenylquinolin-4-yloxy)-5,16-dioxo-6-(2-oxo-2-(4-(pyrazin-2-yl)piperazin-1-yl)ethyl)-1,2,3,5,6,7,8,9,10,11, 13a,14,14a,15,16,16a-hexadecahydrocyclopropa [e]pyrrolo[1,2-a][1,4] diazacyclopentadecine-14a-carboxamide], the EC50 is reported as < 1 µM.
With `COc1ccc2c(O[C@@H]3C[C@H]4C(=O)N[C@]5(C(=O)NS(=O)(=O)C6CC6)C[C@H]5/C=C\CCCCC[C@H](CC(=O)OC(C)(C)C)C(=O)N4C3)cc(-c3ccccn3)nc2c1Cl` [Compound 88, tert-butyl 2-((2R,6R,14aR, 16aS,Z)-2-(8-chloro-7-methoxy-2-(pyridin-2-yl)quinolin-4-yloxy)-14a-(cyclopropylsulfonyl-carbamoyl)-5,16-dioxo-1,2,3,5,6,7,8,9,10,11, 13a,14,14a,15,16,16a-hexadecahydrocyclopropa [e]pyrrolo[1,2-a][1,4]diazacyclopentadecin-6-yl)acetate] the EC50 was < 1 µM.
With `COc1ccc2c(O[C@@H]3C[C@H]4C(=O)N[C@]5(C(=O)NS(=O)(=O)C6CC6)C[C@H]5/C=C\CCCCC[C@H](CC(=O)O)C(=O)N4C3)cc(-c3ccccn3)nc2c1Cl` [Compound 89, 2-((2R,6R,14aR, 16aS,Z)-2-(8-chloro-7-methoxy-2-(pyridin-2-yl)quinolin-4-yloxy)-14a-(cyclopropylsulfonyl-carbamoyl)-5,16-dioxo-1,2,3,5,6,7,8,9,10,11, 13a,14,14a,15,16,16a-hexadecahydrocyclopropa [e]pyrrolo[1,2-a][1,4]diazacyclopentadecin-6-yl)acetic acid] the EC50 was < 1 µM.
With `COc1ccc2c(O[C@@H]3C[C@H]4C(=O)N[C@]5(C(=O)NS(=O)(=O)C6CC6)C[C@H]5/C=C\CCCCC[C@H](CC(=O)N5CCCCC5)C(=O)N4C3)cc(-c3ccccn3)nc2c1Cl` [Compound 90, (2R,6R,14aR,16aS,Z)-2-(8-chloro-7-methoxy-2-(pyridin-2-yl)quinolin-4-yloxy)-N-(cyclopropylsulfonyl)-5, 16-dioxo-6-(2-oxo-2-(piperidin-1-yl)ethyl)-1,2,3,5,6,7,8,9,10,11, 13a,14,14a,15,16,16a-hexadecahydrocyclopropa [e]pyrrolo[1,2-a][1,4] diazacyclopentadecine-14a-carboxamide] the EC50 was < 1 µM.
In the case of `COc1ccc2c(O[C@@H]3C[C@H]4C(=O)N[C@]5(C(=O)NS(=O)(=O)C6CC6)C[C@H]5/C=C\CCCCC[C@H](CC(=O)N5CCCC(F)(F)C5)C(=O)N4C3)cc(-c3ccccn3)nc2c1Cl` [Compound 91, (2R,6R,14aR,16aS,Z)-2-(8-chloro-7-methoxy-2-(pyridin-2-yl)quinolin-4-yloxy)-N-(cyclopropylsulfonyl)-6-(2-(3,3-difluoropiperidin-1-yl)-2-oxoethyl)-5,16-dioxo-1,2,3,5,6,7,8,9,10,11, 13a,14,14a,15,16,16a-hexadecahydrocyclopropa [e]pyrrolo[1,2-a][1,4] diazacyclopentadecine-14a-carboxamide], the EC50 is reported as < 1 µM.
In the case of `COc1ccc2c(O[C@@H]3C[C@H]4C(=O)N[C@]5(C(=O)NS(=O)(=O)C6CC6)C[C@H]5/C=C\CCCCC[C@H](CC(=O)N5CCC(C(F)(F)F)CC5)C(=O)N4C3)cc(-c3ccccn3)nc2c1Cl` [Compound 92, (2R,6R,14aR,16aS,Z)-2-(8-chloro-7-methoxy-2-(pyridin-2-yl)quinolin-4-yloxy)-N-(cyclopropylsulfonyl)-5,16-dioxo-6-(2-oxo-2-(4-(trifluoromethyl)piperidin-1-yl)ethyl)-1,2,3,5,6,7,8,9,10,11, 13a,14,14a,15,16,16a-hexadecahydrocyclopropa [e]pyrrolo[1,2-a][1,4] diazacyclopentadecine-14a-carboxamide], the EC50 is reported as < 1 µM.
`COc1ccc2c(O[C@@H]3C[C@H]4C(=O)N[C@]5(C(=O)NS(=O)(=O)C6CC6)C[C@H]5/C=C\CCCCC[C@H](CC(=O)N5CCC(F)(F)CC5)C(=O)N4C3)cc(-c3ccccn3)nc2c1Cl` [Compound 93, (2R,6R,14aR,16aS,Z)-2-(8-chloro-7-methoxy-2-(pyridin-2-yl)quinolin-4-yloxy)-N-(cyclopropylsulfonyl)-6-(2-(4,4-difluoropiperidin-1-yl)-2-oxoethyl)-5,16-dioxo-1,2,3,5,6,7,8,9,10,11, 13a,14,14a,15,16,16a-hexadecahydrocyclopropa [e]pyrrolo[1,2-a][1,4] diazacyclopentadecine-14a-carboxamide] was tested, and the EC50 was < 1 µM.
`COc1ccc2c(O[C@@H]3C[C@H]4C(=O)N[C@]5(C(=O)NS(=O)(=O)C6CC6)C[C@H]5/C=C\CCCCC[C@H](CC(=O)N5CCC(F)(F)C5)C(=O)N4C3)cc(-c3ccccn3)nc2c1Cl` [Compound 94, (2R,6R,14aR,16aS,Z)-2-(8-chloro-7-methoxy-2-(pyridin-2-yl)quinolin-4-yloxy)-N-(cyclopropylsulfonyl)-6-(2-(3,3-difluoropyrrolidin-1-yl)-2-oxoethyl)-5,16-dioxo-1,2,3,5,6,7,8,9,10,11, 13a,14,14a,15,16,16a-hexadecahydrocyclopropa [e]pyrrolo[1,2-a][1,4] diazacyclopentadecine-14a-carboxamide] was tested, and the EC50 was < 1 µM.
